{"source": "patent US10035790B2", "about": "“RORγ modulators” (BRISTOL-MYERS SQUIBB COMPANY, priority 2012, dated 2018)", "data": [{"target": "T1, ligand binding domain of human RORγ (A262-S507) (Homo sapiens, UniProt P51449)", "T1 construct": "made in house; host or cells: E. coli", "T1 sequence (P51449 262-507)": "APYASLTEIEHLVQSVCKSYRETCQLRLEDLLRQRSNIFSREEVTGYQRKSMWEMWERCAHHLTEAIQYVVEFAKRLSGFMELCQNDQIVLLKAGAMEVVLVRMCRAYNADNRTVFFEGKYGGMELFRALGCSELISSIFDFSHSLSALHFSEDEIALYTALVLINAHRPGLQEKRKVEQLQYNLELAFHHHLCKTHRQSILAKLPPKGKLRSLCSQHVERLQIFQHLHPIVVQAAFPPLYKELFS", "assay": "General RORγ SPA binding assay (competition with [3H]25-hydroxycholesterol)", "conditions": "IC50, RORγ SPA binding assay, inhibition of [3H]25-hydroxycholesterol binding", "outline": "(§1)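 N-terminally His-tagged protein was expressed in E. coli and nickel-purified. Then 50 nM protein was preincubated with compound for 15 min at room temperature in PBS with 0.5% fatty acid free BSA, followed by radioligand for 15 min and copper His-tag SPA beads for 30 min. IC50 came from percent inhibition of binding.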", "units": {"IC50": "nM"}, "values": [{"smiles": "Cc1nc(C)c(C(=O)NCc2ccnc(C(F)(F)F)n2)c(C2CCN(C(=O)Oc3c(F)cccc3F)CC2)n1", "note": "[Compound A123, 2,6-Difluorophenyl 4-{2,6-dimethyl-5-[({[2-(trifluoromethyl)pyrimidin-4-yl]methyl}amino)carbonyl]pyrimidin-4-yl}piperidine-1-carboxylate]", "IC50": 5.4}, {"smiles": "Cc1nc(C)c(C(=O)NCc2ccnc(C(F)(F)F)n2)c(C2CCN(C(=O)Oc3ccccc3F)CC2)n1", "note": "[Compound A124, 2-Fluorophenyl 4-{2,6-dimethyl-5-[({[2-(trifluoromethyl)pyrimidin-4-yl]methyl}amino)carbonyl]pyrimidin-4-yl}piperidine-1-carboxylate]", "IC50": 11.4}, {"smiles": "Cc1nc(C)c(C(=O)NCc2ccnc(C(F)(F)F)n2)c(C2CCN(C(=O)Oc3ccccc3)CC2)n1", "note": "[Compound A125, Phenyl 4-{2,6-dimethyl-5-[({[2-(trifluoromethyl)pyrimidin-4-yl]methyl}amino)carbonyl]pyrimidin-4-yl}piperidine-1-carboxylate]", "IC50": 11.6}, {"smiles": "Cc1nc(N)nc(C2CCN(C(=O)Oc3ccccc3F)CC2)c1C(=O)NCc1ccnc(C(F)(F)F)n1", "note": "[Compound A126, 2-Fluorophenyl 4-{2-amino-6-methyl-5-[({[2-(trifluoromethyl)pyrimidin-4-yl]methyl}amino)carbonyl]pyrimidin-4-yl}piperidine-1-carboxylate]", "IC50": 15.2}]}, {"target": "T1, ligand binding domain of human RORγ (A262-S507)", "assay": "General RORγ SPA binding assay (competition with [3H]25-hydroxycholesterol)", "conditions": "RORγ SPA binding assay, inhibition of [3H]25-hydroxycholesterol binding; read-out: IC50", "outline": "as §1", "units": {"IC50": "nM"}, "values": [{"smiles": "Cc1cc(C)cc(CNC(=O)c2cnc(C)nc2C2CCN(C(=O)C(F)(F)c3ccccc3)CC2)c1", "note": "[Compound A117, 4-{1-[Difluoro(phenyl)acetyl]piperidin-4-yl}-N-[(3,5-dimethylphenyl)methyl]-2-methylpyrimidine-5-carboxamide]", "IC50": 253}, {"smiles": "Cc1cc(C)cc(CNC(=O)c2cnc(C)nc2C2CCN(C(=O)C(F)(F)c3ccccc3F)CC2)c1", "note": "[Compound A118, 4-{1-[Difluoro(2-fluorophenyl)acetyl]piperidin-4-yl}-N-[(3,5-dimethylphenyl)methyl]-2-methylpyrimidine-5-carboxamide]", "IC50": 51.6}, {"smiles": "Cc1cc(C)cc(CNC(=O)c2cnc(C)nc2C2CCN(C(=O)Oc3ccccc3Cl)CC2)c1", "note": "[Compound A119, 2-Chlorophenyl 4-[5-({[(3,5-dimethylphenyl)methyl]amino}carbonyl)-2-methylpyrimidin-4-yl]piperidine-1-carboxylate]", "IC50": 6.2}, {"smiles": "Cc1cc(C)cc(CNC(=O)c2cnc(C)nc2C2CCN(C(=O)Oc3c(F)cccc3F)CC2)c1", "note": "[Compound A120, 2,6-Difluorophenyl 4-[5-({[(3,5-dimethylphenyl)methyl]amino}carbonyl)-2-methylpyrimidin-4-yl]piperidine-1-carboxylate]", "IC50": 6}, {"smiles": "Cc1nc(C)c(C(=O)NCc2ccnc(C(F)(F)F)n2)c(C2CCN(C(=O)Cc3c(F)cccc3F)CC2)n1", "note": "[Compound A121, 4-{1-[(2,6-Difluorophenyl)acetyl]piperidin-4-yl}-2,6-dimethyl-N-{[2-(trifluoromethyl)pyrimidin-4-yl]methyl}pyrimidine-5-carboxamide]", "IC50": 58.4}, {"smiles": "Cc1nc(C)c(C(=O)NCc2ccnc(C(F)(F)F)n2)c(C2CCN(C(=O)Nc3c(F)cccc3F)CC2)n1", "note": "[Compound A122, 4-(1-{[(2,6-difluorophenyl)amino]carbonyl}piperidin-4-yl)-2,6-dimethyl-N-{[2-(trifluoromethyl)pyrimidin-4-yl]methyl}pyrimidine-5-carboxamide]", "IC50": 116}, {"smiles": "C/C(=N\\Oc1cccc(C(F)(F)F)c1)c1c(C)nc(C)nc1C1CCN(C(=O)Cc2c(F)cccc2F)CC1", "note": "[Compound B1, (1E)-1-(4-{1-[(2,6-Difluorophenyl)acetyl]piperidin-4-yl}-2,6-dimethylpyrimidin-5-yl)ethanone O-[3-(trifluoromethyl)phenyl]]", "IC50": 54}, {"smiles": "C/C(=N/Oc1ccnc(C(F)(F)F)c1)c1c(C)nc(C)nc1C1CCN(C(=O)Cc2c(F)cccc2F)CC1", "note": "[Compound B2, (1Z)-1-(4-{1-[(2,6-Difluorophenyl)acetyl]piperidin-4-yl}-2,6-dimethylpyrimidin-5-yl)ethanone 0-[2-(trifluoromethyl)pyridin-4-yl]oxime]", "IC50": 444}]}]}
